Legend:
Type in all cases: in vivo
[1] = test system: tobacco budworm (Heliothis virescens); test: Action on tobacco budworm, eggs on insect diet in 96-well microtiter plates; conditions: 120 h, egg and larval mortality visually assessed after 5 days, read-out: mortality in comparison with untreated controls
Outline: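 Compounds in 25% DMSO/water sprayed (10 μl) onto insect diet holding 15–25 H. virescens eggs, two replicates at several concentrations. Held 5 days at about 28±1 °C, 80±5% RH. Egg and larval mortality scored visually.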

[2] = test system: Southern Armyworm (Spodoptera eridania), 2nd instar larvae; test: Action on southern armyworm 2nd instar larvae, sprayed lima bean plants; conditions: 96 h, 4 days after treatment, read-out: mortality in comparison with untreated controls
Outline: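 Lima bean plants (Sieva, 1st true leaf) sprayed electrostatically with compound in 50% acetone/water plus 0.01% nonionic surfactant, dried, then infested with 10–11 larvae in bags. Held at about 25 °C, 20–40% RH; mortality and reduced feeding scored 4 days after treatment versus untreated plants.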

[3] = test system: Mediterranean fruitfly (Ceratitis capitata); test: Action on Mediterranean fruitfly, eggs on insect diet in microtiter plates; conditions: 120 h, egg and larval mortality visually assessed after 5 days, read-out: mortality in comparison with untreated controls
Outline: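 Microtiter plates held insect diet plus 50-80 C. capitata eggs; compounds in 75% water/25% DMSO were sprayed onto the diet at several concentrations, two replicates. Plates were kept at about […] and […] relative humidity for 5 days, then egg and larval mortality was scored visually.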

[4] = test system: Diamond Back Moth (Plutella xylostella); test: Action on diamond back moth, dipped cabbage leaves; conditions: 3rd instar larvae, 72 hours after treatment, read-out: mortality in comparison with untreated controls
Outline: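 Cabbage leaves dipped in compound in 1:1 water:acetone with 0.01% (vol/vol) surfactant, air-dried, placed on moist filter paper and infested with ten 3rd-instar larvae. Mortality scored 72 hours after treatment; feeding damage rated on a 0-100% scale.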

[5] = test system: Orchid Thrips (Dichromothrips corbetti); test: Action on orchid thrips, floral-immersion technique; conditions: adult thrips, 72 hours after treatment, read-out: mortality in comparison with untreated controls
Outline: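 Lab-colony adult thrips, about 20 per arena, were exposed to whole orchid flower petals dipped in compound diluted in 1:1 acetone:water with 0.01% v/v Kinetic HV and then dried. Arenas were held under continuous light at about 28 °C. Live thrips were counted after 3 days and percent mortality recorded at 72 h post-treatment.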

[6] = test system: yellow fever mosquito (Aedes aegypti); test: whole plant or invertebrate; conditions: 48 h, larval mortality visually assessed after 2 days, read-out: mortality in comparison with untreated controls
Outline: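 Freshly hatched larvae (5-15 per well) held in 200 μl tap water; compounds formulated in 25% DMSO/water and 2.5 μl sprayed at several concentrations, two replicates. Plates kept 2 days at 28 °C, 80% RH, then larval mortality scored visually.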

[7] = test system: Silverleaf Whitefly (Bemisia argentifolii) (Adults); test: Action on silverleaf whitefly adults, sprayed cotton plants; conditions: 72 h, 3 days after treatment, read-out: mortality in comparison with untreated controls
Procedure: Example B4: Action on Silverleaf Whitefly (Bemisia argentifolii) (Adults)
The active compounds were formulated by a Tecan liquid handler in 100% cyclohexanone as a 10,000 ppm solution supplied in tubes. The 10,000 ppm solution was serially diluted in 100% cyclohexanone to make interim solutions. These served as stock solutions for which final dilutions were made by the Tecan in 50% acetone:50% water (v/v) into 5 or 10 ml glass vials. A nonionic surfactant (Kinetic®) was included in the solution at a volume of 0.01% (v/v). The vials were then inserted into an automated electrostatic sprayer equipped with an atomizing nozzle for application to plants/insects.
Cotton plants at the cotyledon stage (one plant per pot) were sprayed by an automated electrostatic plant sprayer equipped with an atomizing spray nozzle. The plants were dried in the sprayer fume hood and then removed from the sprayer. Each pot was placed into a plastic cup and about 10 to 12 whitefly adults (approximately 3-5 days old) were introduced. The insects were collected using an aspirator and a nontoxic Tygon® tubing connected to a barrier pipette tip. The tip, containing the collected insects, was then gently inserted into the soil containing the treated plant, allowing insects to crawl out of the tip to reach the foliage for feeding. Cups were covered with a reusable screened lid. Test plants were maintained in a growth room at about 25° C. and about 20-40% relative humidity for 3 days, avoiding direct exposure to fluorescent light (24 hour photoperiod) to prevent trapping of heat inside the cup. Mortality was assessed 3 days after treatment, compared to untreated control plants.

[8] = test system: vetch aphid (Megoura viciae); test: Action on vetch aphid, broad bean leaf disks in 24-well microtiter plates; conditions: foliar, 120 h, adult aphids on treated leaf disks, 5 days, read-out: mortality in comparison with untreated controls
Procedure: Example B7: Action on Vetch Aphid (Megoura viciae)
For evaluating control of vetch aphid (Megoura viciae) through contact or systemic means the test unit consisted of 24-well-microtiter plates containing broad bean leaf disks.
The compounds were formulated using a solution containing 75% v/v water and 25% v/v DMSO. Different concentrations of formulated compounds were sprayed onto the leaf disks at 2.5 μl, using a custom built micro atomizer, at two replications.
After application, the leaf disks were air-dried and 5-8 adult aphids placed on the leaf disks inside the microtiter plate wells. The aphids were then allowed to suck on the treated leaf disks and incubated at about 23±1° C. and about 50±5% relative humidity for 5 days. Aphid mortality and fecundity was then visually assessed.

[9] = test system: boll weevil (Anthonomus grandis); test: Action on boll weevil, eggs on insect diet in 96-well microtiter plates; conditions: 120 h, 800 ppm, egg and larval mortality visually assessed after 5 days, read-out: mortality in comparison with untreated controls
Outline: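 Diet in 96-well plates was infested with 5-10 A. grandis eggs and sprayed with compounds formulated in 75% water/25% DMSO, at several concentrations, in two replicates. Plates were held 5 days at about 25±1 °C and 75±5% RH. Egg and larval mortality was then scored visually.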

CC(C)c1ccccc1N1CCS/C1=N/N=C/c1ccc2c(ccc3c2ncn3-c2ccc(OC(F)(F)F)cc2)n1 [Compound C-21, (E)-3-(2-isopropylphenyl)-N-[(E)-[3-[4-(trifluoromethoxy)phenyl]imidazo[4,5-f]quinolin-7-yl]methyleneamino]thiazolidin-2-imine]
≥ 75%: mortality at 800 ppm [1] | mortality at 500 ppm [2] | mortality at 800 ppm [3] | mortality at 500 ppm [4] | mortality at 500 ppm [5] | mortality at 800 ppm [6] | mortality at 500 ppm [7] | mortality at 800 ppm [8] | mortality at 800 ppm [9]
